According to ChEMBL document CHEMBL1201862, “PubChem BioAssay data set” (2004):
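Five concentrations, 48 hours, 96-well plates. Abbreviation: GI50, concentration required for 50% inhibition of growth.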 The source made the active and inactive calls. No stated cut-off is given here; in the data, active = GI50 up to about 1.1 µM and inactive = higher.

Tests used:
Assay in all cases: DTP human tumour cell line panel, 48 h
NCI-H522 = tested on: NCI-H522
SK-MEL-2 = tested on: SK-MEL-2
SK-MEL-5 = tested on: SK-MEL-5
K562 = tested on: K562
KM12 = tested on: KM12
SK-MEL-28 = tested on: SK-MEL-28
IGROV-1 = tested on: IGROV-1
NCI-H460 = tested on: NCI-H460
BT-549 = tested on: BT-549
OVCAR-5 = tested on: OVCAR-5
MDA-MB-435 = tested on: MDA-MB-435
SK-OV-3 = tested on: SK-OV-3
T47D = tested on: T47D
UO-31 = tested on: UO-31
OVCAR-3 = tested on: OVCAR-3
UACC-62 = tested on: UACC-62
HT-29 = tested on: HT-29
U-251 = tested on: U-251
HOP-62 = tested on: HOP-62
HOP-92 = tested on: HOP-92

`Fc1ccc(C(OCCN2CCC3CCC(C2)N3CCCc2ccccc2)c2ccc(F)cc2)cc1` (centres undefined) was tested, and the GI50 (NCI-H522) was 3.35 µM (inactive), the GI50 (SK-MEL-2) was 3.48 µM (inactive) and the GI50 (SK-MEL-5) was 1.76 µM (inactive). The GI50 (K562) was 2.05 µM (inactive), the GI50 (KM12) was 3.11 µM (inactive) and the GI50 (SK-MEL-28) was 2.52 µM (inactive). The GI50 (IGROV-1) was 4.97 µM (inactive), the GI50 (NCI-H460) was 2.58 µM (inactive) and the GI50 (BT-549) was 8.89 µM (inactive). For the same compound, the GI50 (OVCAR-5) was 6.71 µM (inactive), the GI50 (MDA-MB-435) was 2.61 µM (inactive) and the GI50 (SK-OV-3) was 10.4 µM (inactive). For the same compound, the GI50 (T47D) was 2.16 µM (inactive), the GI50 (UO-31) was 5.56 µM (inactive) and the GI50 (OVCAR-3) was 3.55 µM (inactive). For the same compound, the GI50 (UACC-62) was 5.75 µM (inactive), the GI50 (HT-29) was 3.3 µM (inactive) and the GI50 (U-251) was 4.33 µM (inactive). The GI50 (HOP-62) was 7.38 µM (inactive) and the GI50 (HOP-92) was 5.45 µM (inactive).
For `O=C(O)c1nnsc1-c1ccc(-c2snnc2C(=O)O)cc1`, the GI50 (NCI-H522) was 56.6 µM (inactive), the GI50 (SK-MEL-2) was > 100 µM (inactive) and the GI50 (SK-MEL-5) was > 100 µM (inactive). For the same compound, the GI50 (K562) was 28.5 µM (inactive), the GI50 (KM12) was > 100 µM (inactive) and the GI50 (SK-MEL-28) was > 100 µM (inactive). The GI50 (IGROV-1) was > 100 µM (inactive), the GI50 (NCI-H460) was 32.1 µM (inactive) and the GI50 (BT-549) was > 100 µM (inactive). For the same compound, the GI50 (OVCAR-5) was > 100 µM (inactive), the GI50 (MDA-MB-435) was 48.2 µM (inactive) and the GI50 (SK-OV-3) was > 100 µM (inactive). The GI50 (T47D) was > 100 µM (inactive), the GI50 (UO-31) was > 100 µM (inactive) and the GI50 (OVCAR-3) was 91.2 µM (inactive). The GI50 (UACC-62) was > 100 µM (inactive), the GI50 (HT-29) was > 100 µM (inactive) and the GI50 (U-251) was > 100 µM (inactive). For the same compound, the GI50 (HOP-62) was > 100 µM (inactive) and the GI50 (HOP-92) was 68.4 µM (inactive).
With `O=C1OC(c2ccc([N+](=O)[O-])cc2)=N/C1=C\c1ccc(Cl)cc1` the GI50 (NCI-H522) was > 100 µM (inactive), the GI50 (SK-MEL-2) was > 100 µM (inactive) and the GI50 (SK-MEL-5) was > 100 µM (inactive). For the same compound, the GI50 (K562) was > 100 µM (inactive), the GI50 (KM12) was > 100 µM (inactive) and the GI50 (SK-MEL-28) was > 100 µM (inactive). The GI50 (IGROV-1) was > 100 µM (inactive), the GI50 (NCI-H460) was > 100 µM (inactive) and the GI50 (BT-549) was > 100 µM (inactive). For the same compound, the GI50 (OVCAR-5) was 85.1 µM (inactive), the GI50 (MDA-MB-435) was > 100 µM (inactive) and the GI50 (SK-OV-3) was > 100 µM (inactive). The GI50 (T47D) was > 100 µM (inactive), the GI50 (OVCAR-3) was > 100 µM (inactive) and the GI50 (UACC-62) was > 100 µM (inactive). The GI50 (HT-29) was > 100 µM (inactive), the GI50 (U-251) was > 100 µM (inactive) and the GI50 (HOP-62) was > 100 µM (inactive). For the same compound, the GI50 (HOP-92) was > 100 µM (inactive).
`Nc1cccc(S(=O)(=O)Nc2nnc(S(N)(=O)=O)s2)c1` was tested, and the GI50 (NCI-H522) was > 100 µM (inactive), the GI50 (SK-MEL-2) was > 100 µM (inactive) and the GI50 (SK-MEL-5) was > 100 µM (inactive). The GI50 (K562) was > 100 µM (inactive), the GI50 (KM12) was > 100 µM (inactive) and the GI50 (SK-MEL-28) was > 100 µM (inactive). For the same compound, the GI50 (IGROV-1) was > 100 µM (inactive), the GI50 (NCI-H460) was > 100 µM (inactive) and the GI50 (BT-549) was > 100 µM (inactive). The GI50 (OVCAR-5) was > 100 µM (inactive), the GI50 (MDA-MB-435) was > 100 µM (inactive) and the GI50 (SK-OV-3) was > 100 µM (inactive). For the same compound, the GI50 (T47D) was > 100 µM (inactive), the GI50 (UO-31) was > 100 µM (inactive) and the GI50 (OVCAR-3) was > 100 µM (inactive). The GI50 (UACC-62) was > 100 µM (inactive), the GI50 (HT-29) was > 100 µM (inactive) and the GI50 (U-251) was > 100 µM (inactive). The GI50 (HOP-62) was > 100 µM (inactive) and the GI50 (HOP-92) was > 100 µM (inactive).
With `C[C@H]1COC2=C1C(=O)C(=O)c1c2ccc2c1CCCC2(C)C` [CRYPTOTANSHINONE] the GI50 (NCI-H522) was 2.01 µM (inactive), the GI50 (SK-MEL-2) was 4.25 µM (inactive) and the GI50 (SK-MEL-5) was 0.382 µM (active). The GI50 (K562) was 3.61 µM (inactive), the GI50 (KM12) was 2.19 µM (inactive) and the GI50 (SK-MEL-28) was 3.19 µM (inactive). For the same compound, the GI50 (IGROV-1) was 2.71 µM (inactive), the GI50 (NCI-H460) was 1.63 µM (inactive) and the GI50 (BT-549) was 2.11 µM (inactive). For the same compound, the GI50 (OVCAR-5) was 16.1 µM (inactive), the GI50 (MDA-MB-435) was 1.42 µM (inactive) and the GI50 (SK-OV-3) was 11.6 µM (inactive). For the same compound, the GI50 (T47D) was 9.46 µM (inactive), the GI50 (UO-31) was 4.7 µM (inactive) and the GI50 (OVCAR-3) was 0.326 µM (active). The GI50 (UACC-62) was 2.03 µM (inactive), the GI50 (HT-29) was 2.18 µM (inactive) and the GI50 (U-251) was 2 µM (inactive). The GI50 (HOP-62) was 3.68 µM (inactive) and the GI50 (HOP-92) was 40.8 µM (inactive).
In the case of `CC(C)(C)CC(N)=O`, the GI50 (NCI-H522) is reported as > 100 µM (inactive), the GI50 (SK-MEL-2) is reported as > 100 µM (inactive) and the GI50 (SK-MEL-5) is reported as > 100 µM (inactive). For the same compound, the GI50 (K562) was > 100 µM (inactive), the GI50 (KM12) was > 100 µM (inactive) and the GI50 (SK-MEL-28) was > 100 µM (inactive). For the same compound, the GI50 (IGROV-1) was > 100 µM (inactive), the GI50 (NCI-H460) was > 100 µM (inactive) and the GI50 (BT-549) was > 100 µM (inactive). For the same compound, the GI50 (OVCAR-5) was > 100 µM (inactive), the GI50 (MDA-MB-435) was > 100 µM (inactive) and the GI50 (SK-OV-3) was > 100 µM (inactive). For the same compound, the GI50 (T47D) was > 100 µM (inactive), the GI50 (UO-31) was > 100 µM (inactive) and the GI50 (OVCAR-3) was > 100 µM (inactive). The GI50 (UACC-62) was > 100 µM (inactive), the GI50 (HT-29) was > 100 µM (inactive) and the GI50 (U-251) was > 100 µM (inactive). The GI50 (HOP-62) was > 100 µM (inactive) and the GI50 (HOP-92) was > 100 µM (inactive).
`C[n+]1ccccc1/C1=c2\cc/c([nH]2)=C(\c2cccc[n+]2C)C2=N/C(=C(/c3cccc[n+]3C)C3C=CC(N3)/C(c3cccc[n+]3C)=C3/C=CC1=N3)C=C2` was tested, and the GI50 (NCI-H522) was > 100 µM (inactive), the GI50 (SK-MEL-2) was > 100 µM (inactive) and the GI50 (SK-MEL-5) was 71.4 µM (inactive). The GI50 (K562) was 26.7 µM (inactive), the GI50 (KM12) was 62.4 µM (inactive) and the GI50 (SK-MEL-28) was > 100 µM (inactive). The GI50 (IGROV-1) was 92.9 µM (inactive), the GI50 (NCI-H460) was 40.9 µM (inactive) and the GI50 (BT-549) was > 100 µM (inactive). The GI50 (OVCAR-5) was > 100 µM (inactive), the GI50 (MDA-MB-435) was 57 µM (inactive) and the GI50 (SK-OV-3) was > 100 µM (inactive). The GI50 (T47D) was > 100 µM (inactive), the GI50 (UO-31) was > 100 µM (inactive) and the GI50 (OVCAR-3) was 58.7 µM (inactive). The GI50 (UACC-62) was > 100 µM (inactive), the GI50 (HT-29) was 39.3 µM (inactive) and the GI50 (U-251) was > 100 µM (inactive). The GI50 (HOP-62) was > 100 µM (inactive) and the GI50 (HOP-92) was 90.6 µM (inactive).
